Test results taken from publication PMC12484785, “Structure and activation mechanism of human sweet taste receptor” (Cell Research, 2025).

What was measured:
TAS1R2 [1] = biological target: T1, TAS1R2 (Homo sapiens, UniProt Q8TE23); test: cryo-EM structures of human/human and human/mouse receptor with advantame; EC50 from cell-based calcium imaging (human/human)
T1 construct: VFT domain of TAS1R2 in the TAS1R2/TAS1R3 heterodimer; with TAS1R3 (human; also mouse TAS1R3)
T1 sequence (Q8TE23 22-839): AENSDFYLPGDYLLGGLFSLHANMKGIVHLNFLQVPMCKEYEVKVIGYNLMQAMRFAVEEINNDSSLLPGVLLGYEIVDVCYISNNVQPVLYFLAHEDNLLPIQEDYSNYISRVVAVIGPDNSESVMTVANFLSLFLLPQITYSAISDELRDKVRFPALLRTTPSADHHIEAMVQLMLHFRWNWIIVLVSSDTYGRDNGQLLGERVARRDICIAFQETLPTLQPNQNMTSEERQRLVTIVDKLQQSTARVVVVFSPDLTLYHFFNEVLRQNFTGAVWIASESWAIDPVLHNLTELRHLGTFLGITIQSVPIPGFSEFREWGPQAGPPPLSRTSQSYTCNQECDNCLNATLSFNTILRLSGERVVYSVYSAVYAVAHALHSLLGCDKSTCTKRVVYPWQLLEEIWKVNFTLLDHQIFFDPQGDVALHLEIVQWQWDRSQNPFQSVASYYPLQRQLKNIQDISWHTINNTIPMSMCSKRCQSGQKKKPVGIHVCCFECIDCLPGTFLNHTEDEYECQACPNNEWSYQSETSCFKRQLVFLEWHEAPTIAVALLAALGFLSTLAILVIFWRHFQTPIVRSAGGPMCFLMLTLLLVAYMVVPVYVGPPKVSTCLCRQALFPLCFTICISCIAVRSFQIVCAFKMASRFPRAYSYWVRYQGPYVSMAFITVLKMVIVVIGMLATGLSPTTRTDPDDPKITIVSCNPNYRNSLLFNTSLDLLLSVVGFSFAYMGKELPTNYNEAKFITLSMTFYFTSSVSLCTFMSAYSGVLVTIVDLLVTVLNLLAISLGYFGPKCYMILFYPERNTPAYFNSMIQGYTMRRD
T1 sequence (Q7RTX0 21-852 partner): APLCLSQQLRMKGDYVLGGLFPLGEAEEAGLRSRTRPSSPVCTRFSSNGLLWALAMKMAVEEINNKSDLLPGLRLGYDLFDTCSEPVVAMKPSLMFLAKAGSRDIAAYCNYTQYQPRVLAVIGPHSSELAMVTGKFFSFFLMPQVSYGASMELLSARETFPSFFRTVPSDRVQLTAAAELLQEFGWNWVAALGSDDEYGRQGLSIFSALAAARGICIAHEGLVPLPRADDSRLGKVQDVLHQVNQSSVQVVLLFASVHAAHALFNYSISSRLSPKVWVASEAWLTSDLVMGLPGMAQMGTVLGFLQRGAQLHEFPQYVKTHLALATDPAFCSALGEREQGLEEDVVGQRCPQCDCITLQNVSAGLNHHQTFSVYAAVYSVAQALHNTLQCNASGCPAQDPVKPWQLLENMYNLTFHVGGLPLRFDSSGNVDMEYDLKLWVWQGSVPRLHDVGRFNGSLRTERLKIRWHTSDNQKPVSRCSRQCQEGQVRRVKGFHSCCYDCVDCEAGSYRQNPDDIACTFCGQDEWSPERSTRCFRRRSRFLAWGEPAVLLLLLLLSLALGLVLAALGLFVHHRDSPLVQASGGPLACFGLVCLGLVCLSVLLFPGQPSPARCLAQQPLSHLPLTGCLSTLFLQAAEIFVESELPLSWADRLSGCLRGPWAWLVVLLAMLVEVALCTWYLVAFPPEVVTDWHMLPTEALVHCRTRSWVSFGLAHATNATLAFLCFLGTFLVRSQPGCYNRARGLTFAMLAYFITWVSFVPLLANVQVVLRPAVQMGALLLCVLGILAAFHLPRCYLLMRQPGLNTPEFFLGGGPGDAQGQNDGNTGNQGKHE
Description: cryo-EM structures of human/human and human/mouse receptor with advantame; EC50 from cell-based calcium imaging (human/human) on TAS1R2 | Advantame also yields well-defined ligand density in the TAS1R2 VFT pocket of both human/mouse and human/human receptors

TAS1R2 [2] = biological target: T2, TAS1R2 (Homo sapiens, UniProt Q8TE23); test: cell-based calcium imaging of the expressed human/human receptor
T2 construct: TAS1R2/TAS1R3 heterodimer; with TAS1R3 (human)
T2 sequence (Q8TE23 20-839): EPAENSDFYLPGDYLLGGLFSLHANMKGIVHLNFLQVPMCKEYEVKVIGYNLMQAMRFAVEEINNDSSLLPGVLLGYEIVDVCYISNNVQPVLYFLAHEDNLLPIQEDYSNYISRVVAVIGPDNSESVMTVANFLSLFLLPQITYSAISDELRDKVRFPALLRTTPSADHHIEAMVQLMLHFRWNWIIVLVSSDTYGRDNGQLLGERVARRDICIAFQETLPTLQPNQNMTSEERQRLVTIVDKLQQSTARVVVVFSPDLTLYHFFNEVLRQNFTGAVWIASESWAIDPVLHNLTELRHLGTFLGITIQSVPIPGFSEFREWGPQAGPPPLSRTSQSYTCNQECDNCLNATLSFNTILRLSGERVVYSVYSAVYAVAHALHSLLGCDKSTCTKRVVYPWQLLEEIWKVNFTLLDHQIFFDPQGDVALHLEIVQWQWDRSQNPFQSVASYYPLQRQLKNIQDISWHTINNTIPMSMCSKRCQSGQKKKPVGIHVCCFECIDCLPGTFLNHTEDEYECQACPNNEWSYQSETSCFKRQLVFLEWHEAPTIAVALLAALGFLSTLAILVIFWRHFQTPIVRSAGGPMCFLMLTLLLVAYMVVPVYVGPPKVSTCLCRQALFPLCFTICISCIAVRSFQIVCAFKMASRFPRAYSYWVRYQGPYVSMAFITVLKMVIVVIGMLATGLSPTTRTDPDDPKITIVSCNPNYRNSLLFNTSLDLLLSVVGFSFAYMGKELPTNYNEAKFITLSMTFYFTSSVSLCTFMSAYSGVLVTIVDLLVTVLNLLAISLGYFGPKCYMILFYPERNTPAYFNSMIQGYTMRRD
T2 sequence (Q7RTX0 21-852 partner): T1 sequence (Q7RTX0 21-852 partner)

Row | SMILES | EC50 (TAS1R2 [1]) [µM] | EC50 (TAS1R2 [2]) [µM]
1 | COC(=O)[C@H](Cc1ccccc1)NC(=O)[C@H](CC(=O)O)NCCCc1ccc(OC)c(O)c1 [Adv, advantame] | 0.9 | –
2 | COC(=O)[C@H](Cc1ccccc1)NC(=O)[C@H](CC(=O)O)NCCC(C)(C)C [neotame] | – | 2.7
